Measured values from US20080250710A1, “Low Light Cultivation Method and Plant Growth Promoting Agent” (priority 2005, published 2008).

Tests used:
[1] = test system: morning glory (Pharbitis nil var. Violet) seedlings; assay: Low light cultivation experiment: number of days until lodging of morning glory young plants; assay type: in vivo; details: for Average value (days) of the numbers of days until lodging: 250 mL per pot once every four days, 200 lux, 23° C.; for effectiveness to low light cultivation (days until lodging versus control test solution): verdict in words
Procedure: As a plant, morning glory (Pharbitis nil var. Violet) seedlings (day 7 after germination) were used. Experiments were conducted in an incubator (low temperature of 23° C.) in daily cycles where a light period (200 lux) is 14 hours and a dark period is 10 hours in a day. Morning glory seeds (purchased from Marutane Co., Ltd., Kyoto) were sown in black plastic pots (commercially available No. 105 size: diameter 105 cm, height 90 cm). Vermiculite was used as culture medium (the wet weight of vermiculite in a pot was 350 g).
250 mL of a test solution was given to each pot once every four days. Test data was taken from 10 morning glory seedlings (young plants) grown per pot. After start of the test, the number of seedlings that lodged was counted every day. A lodging criterion is that the hypocotyl (a rachis under a cotyledon) of a young plant lodges and the cotyledon contacts culture medium, or the whole cotyledon died. Lodged young plants were removed each time. Note that the effect was evaluated using the average value of the numbers of days until lodging. The average value was calculated as follows. For example, when three plants lodged on day 9, four plants lodged on day 10, and three plants lodged on day 11, then the average value is 10.0 (=(9×3+10×4+11×3)/10).
Eight organic acids (aminolevulinic acid, citric acid, malic acid, succinic acid, tartaric acid, acetic acid, oxalic acid, and lactic acid) were prepared. Each organic acid was dissolved in a 500-fold dilution of a liquid fertilizer (VIGOR LIFE V) (a solution in which VIGOR LIFE V was diluted 500-fold with distilled water). Thereafter, the solution was adjusted to pH 5.0 with potassium hydroxide. Note that the organic acid concentration of each test solution was 5 mM.
A 500-fold dilution of VIGOR LIFE V was used as a control test solution.
The eight test solutions and the control test solution were used to conduct the low light cultivation experiment. Note that the upper row of Table 1 indicates the organic acids contained in the test solutions (the control test solution contained no organic acid). Also, the lower row of Table 1 indicates the average values (days) of the numbers of days until lodging of the morning glory young plants.
Six sugars (sucrose, glucose, fructose, trehalose, palatinose, and xylose) were prepared. Each sugar was dissolved in a 500-fold dilution of a liquid fertilizer (VIGOR LIFE V) (a solution in which VIGOR LIFE V was diluted 500-fold with distilled water). Note that the sugar concentration of each test solution was 3%.
Also, a 500-fold dilution of VIGOR LIFE V was used as a control test solution. […]
Note that the upper row of Table 2 indicates the sugars contained in the test solutions (the control test solution contained no sugar). Also, the lower row of Table 2 indicates the average values (days) of the numbers of days until lodging of the morning glory young plants.

[2] = test system: houseplant weeping fig (Ficus benzyamina); assay: Low light cultivation of weeping fig: leaf survival ratio; assay type: in vivo; details: after four weeks, verdict in words
Procedure: The inorganic solution was used as a control reagent. (Reagent 1: the inorganic solution in which aminolevulinic acid is dissolved, Reagent 2: the inorganic solution in which citric acid is dissolved, and Reagent 3: the inorganic solution in which citric acid and sucrose are dissolved).
Note that, in respective reagents, the citric acid concentration was 5 mM, the sucrose concentration was 3%, and the aminolevulinic acid concentration was 100 ppm. The reagents containing citric acid (Reagent 2 and Reagent 3) were adjusted to pH 5.0 with potassium hydroxide.
Low light cultivation was conducted using the reagents and a houseplant weeping fig, with two methods below.
Regular cultivation: four commercially available weeping fig plants in No. 4-sized pots were prepared. The four reagents (Reagents 1 to 3 and the control reagent) were given to the respective plants in an amount of 50 mL once (Monday) every week. Watering was performed in an amount of 50 mL twice (Wednesday and Friday) every week. […]
The effect of each reagent was evaluated by counting the number of leaves for each pot and calculating the survival ratio (%) of leaves every week. Note that the leaf survival ratio (%) was calculated as a “survival ratio (%)=the number of counted weeping fig leaves/the number of weeping fig leaves before low light cultivation (initial value)×100”.

[3] = organic acid 5 mM in 500-fold dilution of VIGOR LIFE V, pH 5.0
[4] = sugar 3% in 500-fold dilution of VIGOR LIFE V

| Compound | Average value (days) of the numbers of days until lodging [1, 3] [days] | Average value (days) of the numbers of days until lodging [1, 4] [days] | other results |
| --- | --- | --- | --- |
| O=C(O)CC(O)(CC(=O)O)C(=O)O [Citric acid, citric acid] | 12.9 |  | effectiveness to low light cultivation (days until lodging versus control test solution) ([1]; organic acid 5 mM, pH 5.0): effective; effectiveness to low light cultivation (leaf survival ratio versus control reagent) [2]: effective |
| NCC(=O)CCC(=O)O [Aminolevulinic acid, aminolevulinic acid, reference compound] | 2.5 |  |  |
| CC(=O)O [Acetic acid, acetic acid] | 3.9 |  |  |
| O=C(O)C(O)C(O)C(=O)O (centres unmarked) [Tartaric acid, tartaric acid] | 4.9 |  |  |
| O=C[C@H](O)[C@@H](O)[C@H](O)CO [Xylose, xylose] |  | 10.1 |  |
| O=C(CO)[C@@H](O)[C@H](O)[C@H](O)CO [Fructose, fructose] |  | 22.1 | effectiveness to low light cultivation (days until lodging versus control test solution) ([1]; sugar 3%): particularly effective |
| OC[C@H]1O[C@H](OC[C@H]2OC(O)(CO)[C@@H](O)[C@@H]2O)[C@H](O)[C@@H](O)[C@@H]1O (some centres unmarked) [Palatinose, palatinose] |  | 9.6 |  |
| OC[C@H]1O[C@@](CO)(O[C@H]2O[C@H](CO)[C@@H](O)[C@H](O)[C@H]2O)[C@@H](O)[C@@H]1O [Sucrose, sucrose] |  | 25.9 | effectiveness to low light cultivation (days until lodging versus control test solution) ([1]; sugar 3%): particularly effective |
| O=C(O)CC(O)C(=O)O (centres unmarked) [Malic acid, malic acid] | 11.1 |  | effectiveness to low light cultivation (days until lodging versus control test solution) ([1]; organic acid 5 mM, pH 5.0): effective |
| CC(O)C(=O)O (centres unmarked) [Lactic acid, lactic acid] | 6.1 |  |  |
| O=C(O)CCC(=O)O [Succinic acid, succinic acid] | 10.4 |  | effectiveness to low light cultivation (days until lodging versus control test solution) ([1]; organic acid 5 mM, pH 5.0): effective |
| O=C(O)C(=O)O [Oxalic acid, oxalic acid] | 3.7 |  |  |
| OC[C@H]1O[C@H](O[C@H]2O[C@H](CO)[C@@H](O)[C@H](O)[C@H]2O)[C@H](O)[C@@H](O)[C@@H]1O [Trehalose, trehalose] |  | 21.9 | effectiveness to low light cultivation (days until lodging versus control test solution) ([1]; sugar 3%): particularly effective |
